Assays:
[1] = system: caspase-1 (inflammasome activation) in urothelial cells; experiment: Caspase-1 activity in isolated mouse urothelial cells treated with diabetic DAMPS in vitro; settings: DAMP 24 h (ATP 1 h)
[2] = system: caspase-1 activation in urothelial cells; experiment: Caspase-1 assay in isolated rat urothelial cells treated with stone DAMPs, with or without inhibitors; settings: for maximal response of caspase-1 activation: normalized to 1.25 mM ATP 1 h; for concentration sufficient to completely suppress caspase-1 activation in MSU-treated cells: 1.25 μg/mL MSU 24 h
Protocol: Briefly, rats were sacrificed and the bladders removed and placed in sterile PBS. Bladders were then inverted over an 18-gauge blunt tip needle, inflated with PBS, and a purse string suture was used to tie off the bladder. The inflated bladder was then submerged in Collagenase P (1 mg/ml in complete media) and shaken for 1 hour at 37° C. […] Media was removed and replaced with fresh media (90 μL for agonist studies, 80 μL for inhibitor studies) just prior to the start of experimental treatments.
Using PBS (for CPPD) or complete media (for MSU), 1:2 serial dilutions were prepared. Wells were then treated with 10 μL of the appropriate dilution of stone DAMP for a final volume of 100 μL. After treatment, cells were incubated for another 24 hours at 37° C.
For inhibition response studies, the general ROS scavenger N-acetylcysteine was prepared to the stock concentration of 5 mM for MSU treatment and to 50 mM for CPPD treatment. Prior to treatment, the stock concentration of NAC was buffered to pH 7.2. […] Using complete media for NAC and PBS for Verapamil, 1:2 serial dilutions were prepared. Cells were treated with 10 μL of NAC or Verapamil and incubated at 37° C. for 1 or 4 hours, respectively. […] Plates were then incubated for an additional 24 hours at 37° C.
Briefly, media was removed and cells lysed in 50 μl lysis buffer (10 mM MgCl2 and 0.25% Igepal CA-630) for 5 minutes. An additional 50 μL of storage buffer (40 mM HEPES (pH 7.4), 20 mM NaCl, 2 mM EDTA and 20% glycerol) was added, and the plates frozen at −80° C. until use (>30 minutes). […] Plates were then incubated in the dark for 1 hour at 37° C. with mild shaking. Florescence was then measured (excitation 400 nm, emission 505 nm).

BOO [3] = experiment: Open field assay after BOO; format: in vivo, rat; settings: 12 weeks of BOO; glyburide pellet; fluoxetine ≈20 mg/kg/day in drinking water, last 4 weeks
BOO [4] = experiment: Density of Ki-67+ proliferating cells in hippocampus after BOO; format: in vivo, rat; settings: 12 weeks of BOO; glyburide pellet
Protocol: (§1) Sides were alternated thereafter.
(§2) Brains were fixed (10% neutral buffered formalin; 48 h, rt) and grossly cut (coronally) to the hippocampus before being embedded in paraffin with the plane of the hippocampus on the block face. Citrate antigen retrieval was used prior to staining 10 μm coronal sections with anti-IbA1/AIF1 (1:500) (NBP2-19019; Novus Biologicals, Centennial, Colo.) or Anti-Ki67 (1:500) (ab15580; Abcam, Cambridge, Mass.) via standardard methodology. IbA1 was visualized via HRP development (Vectastain ABC Kit; Vector, Burlingame, Calif.), biotinylated secondary antibody provided). Ki-67 was visualized using a goat anti-rabbit secondary antibody conjugated to Alexa Fluor 488 (111-545-144; Jackson ImmunoResearch Labs, West Grove, Pa.). […]
(§3) A Zeiss Axio Imager 2 microscope (Zeiss, Oberkochen, Germany) running Zen software (Zeiss) using the tiling and stitching feature was used to scan one entire hemisphere. […] Slides were quantitated by a researcher blinded to the groups. For microglia, we demarcated 600,000-700,000 μm^2 of the fascia dentata, counted the number of black/brown spots with two or greater associated tendrils and calculated microglial density. For Ki-67^+ cells we demarcated the entire dentate gyrus, CA1, CA2 and CA3 regions, quantitated nuclei (DAPI^+) that were Ki-67^+ (green florescence) and calculated the density.

[5] = cited from earlier work
BOO [6] = experiment: Sucrose preference assay after BOO; format: in vivo, rat; settings: 12 weeks of BOO; glyburide pellet; fluoxetine ≈20 mg/kg/day in drinking water, last 4 weeks
BOO [7] = experiment: Density of activated microglia (IbA1/AIF1) in hippocampus after BOO; format: in vivo, rat; settings: 12 weeks of BOO; glyburide pellet
Protocol: as §1, §2, §3

BOO [8] = experiment: Evans blue assay in hippocampus after BOO; format: in vivo, rat
Protocol: as §1
Rats were weighed and then injected (i.v. 3 ml/kg) with 2% Evan's blue dye in sterile saline by an investigator blinded to the groups (Belayev et al. (1996) Brain Res 739: 88-96). After one hour, rats were euthanized and transcardially perfused with cold PBS to remove intravascular dye. The brain was isolated and the hippocampus dissected, weighed and placed into formamide (0.25 ml) overnight (56° C.). Absorbance (620 nm) was measured and compared to a standard curve to calculate pg Evans blue/μg tissue.

BOO [9] = experiment: Bladder weight after bladder outlet obstruction (BOO); settings: 12 weeks of BOO; glyburide 50 mg 21-day slow release pellet
Protocol: For most studies rats were assigned to 4 groups; 1) Control, 2) Sham, 3) BOO or 4) BOO+glyburide (Gly). […] For Sham and all BOO groups, animals were anesthetized [ketamine hydrochloride (90 mg/kg), xylazine (10 mg/kg); i.p.] and a 1 mm o.d. catheter (P50 tubing) inserted transurethrally. BOO was created by urethral ligation over a 1 mm catheter. A 5-0 silk suture was passed around the urethra and tied securely for BOO and loosely for Sham. The catheter was removed and the abdominal wall closed. For BOO+Gly, a subcutaneous pocket was made on the side of the neck and a single 50 mg, 21-day slow release pellet (Innovative Research of America, Sarasota, Fla.) inserted and the incision closed. A new pellet was placed (contralateral side) after 21 days. Sides were alternated thereafter.
Bladders from the various groups indicated in FIG. 18 were weighed when they were removed for the various endpoints in this experiment.

[10] = cited from earlier work; remark: listed apart in the source

Molecule: CN(N=O)C(=O)N[C@H]1C(O)O[C@H](CO)[C@@H](O)[C@@H]1O (mixture of isomers) [streptozotocin]
- caspase-1 activity (inflammasome activation) [1]: directly activates the inflammasome

Molecule: Nc1ncnc2c1ncn2[C@@H]1O[C@H](COP(=O)(O)OP(=O)(O)OP(=O)(O)O)[C@@H](O)[C@H]1O [ATP]
- caspase-1 activity (inflammasome activation) [1]: elicited a classic dose response

Molecule: CCCCCCCCCCCCC/C=C/[C@@H](O)[C@H](CO)NC(=O)CCCCC [C6-ceramide, N-hexanoyl-D-erythro-sphingosine]
- caspase-1 activity (inflammasome activation) [1]: activation of caspase-1

Molecule: O=P([O-])([O-])OP(=O)([O-])[O-].[Ca+2].[Ca+2] [CPPD, calcium pyrophosphate]
- maximal response of caspase-1 activation ([2]; 24 h treatment): approximately 50 % of the ATP response
- EC50 ([2]; Rattus norvegicus, 24 h, read-out: EC50 of caspase-1 activation): 62.5 µg/mL

Molecule: COc1ccc(Cl)cc1C(=O)NCCc1ccc(S(=O)(=O)NC(=O)NC2CCCCC2)cc1 [GLY, glyburide]
- open field: time exploring the middle of the field (BOO [3]): restored this behavior
- concentration of proliferating cells (Ki-67+) in the hippocampus (BOO [4]): blocked
- crossing of the blood brain barrier ([5]; intact barrier): does not cross the blood brain barrier
- binding in the serum ([5]; serum): mostly albumin-bound
- sucrose preference (BOO [6]): restored
- density of activated microglia in the hippocampus (BOO [7]): reduced back to control levels
- Evan's blue dye extravasation in the hippocampus (BOO [8]; 6 weeks of BOO, glyburide treatment): blocked
- leakage of Evan's blue into the hippocampus (BOO [8]; 12 weeks of BOO, glyburide pellet): reduced back to control levels
- bladder weight (BOO [9]): suppresses this increase

Molecule: O=c1[nH]c(=O)c2[nH]c([O-])nc2[nH]1.[Na+] [MSU, monosodium urate]
- EC50 of caspase-1 activation ([2]; 24 h treatment of rat urothelial cells): 0.156 µg/mL
- maximal response of caspase-1 activation ([2]; 24 h treatment): 25 % of the ATP response
- caspase-1 activity (inflammasome activation) [1]: activation of caspase-1

Molecule: O=S(=O)([O-])CCS.[Na+] [Mesna, 2-mercaptoethane sulfonate sodium]
- effects on bone marrow, hepatic, renal or CNS function ([10]; doses up to 100 mg/kg): no apparent effects on bone marrow, hepatic, renal or CNS function
- fate in plasma ([10]; only a very small portion remaining in circulation): rapid oxidation in plasma

Molecule: CC(=O)N[C@@H](CS)C(=O)O [NAC, N-acetylcysteine]
- concentration sufficient to completely suppress caspase-1 activation in MSU-treated cells [2]: 500 µM
- concentration sufficient to completely suppress caspase-1 activation in CPPD-treated cells ([2]; 62.5 μg/mL CPPD 24 h, NAC 1 h before): 5 mM

Molecule: COc1ccc(CCN(C)CCCC(C#N)(c2ccc(OC)c(OC)c2)C(C)C)cc1OC (stereo not shown) [Verapamil]
- concentration sufficient to completely suppress caspase-1 activation in MSU-treated cells [2]: 150 µM
- IC50 ([2]; Rattus norvegicus, read-out: IC50 of caspase-1 activation in CPPD-treated cells): 100 µM

Molecule: O=C([O-])C(=O)[O-].[Ca+2] [calcium oxalate]
- caspase-1 activation in urothelial cells ([2]; 24 h treatment): activates caspase-1 in urothelial cells in a dose-dependent manner

Molecule: CNCCC(Oc1ccc(C(F)(F)F)cc1)c1ccccc1 (stereo not shown) [fluoxetine]
- open field: time exploring the middle of the field (BOO [3]): restored the exploratory behavior of these rats back to levels not statistically different from control
- sucrose preference (BOO [6]): restored sucrose preference back to levels not statistically different from control

Molecule: AGES
- caspase-1 activity (inflammasome activation) [1]: activation of caspase-1

B1: HMGB-1: high mobility group box 1 protein (ProSci), diabetic DAMP (protein, UniProt P09429 1-215, looked up)
High mobility group protein B1: MGKGDPKKPRGKMSSYAFFVQTCREEHKKKHPDASVNFSEFSKKCSERWKTMSAKEKGKFEDMAKADKARYEREMKTYIPPKGETKKKFKDPNAPKRPPSAFFLFCSEYRPKIKGEHPGLSIGDVAKKLGEMWNNTAADDKQPYEKKAAKLKEKYEKDIAAYRAKGKPDAAKKGVVKAEKSKKKKEEEEDEEDEEDEEEEEDEEDEDEEEDDDDE
- caspase-1 activity (inflammasome activation) [1]: activation of caspase-1

Reference: patent US11559536B2, “Compositions and methods for the treatment of inflammation in urological pathology” (Duke University, priority 2019, dated 2023)
